Results taken from US10793892B2, “Method for detecting the presence of expanded spectrum β-lactamase-producing bacteria in a sample” (INSERM (INSTITUT NATIONAL DE LA SANTE ET DE LA RECHERCHE …, priority 2011, dated 2020).

Columns and labels:
P. stuartii = test: Susceptibility testing, MIC by Etest; assay type: cell-based, Providencia stuartii; details: P. stuartii TEM-24, n=1
Method: (§1) Susceptibility testing was performed by determining MIC values using the Etest® (AB bioMérieux; Solna, Sweden) on Mueller-Hinton agar plates at 37° C. and results were recorded according to US guidelines (CLSI), as updated in 2012 (2). The breakpoints for cefotaxime are susceptible (S)≤1 and resistant (R)≥4 μg/ml, and for ceftazidime S≤4 and R≥16 μg/ml.

E. cloacae = test: Susceptibility testing, MIC by Etest; assay type: cell-based, Enterobacter cloacae
Method: as §1

E. coli = test: ESBL NDP test using cultured strains; assay type: biochemical, Escherichia coli; parameters: key: (+) and (−) referred to color change being, red to yellow or unchanged, respectively; (+) and (−) referred to color change being, red to yellow or unchanged, respectively
Method: Strains were isolated on Mueller-Hinton agar (Biorad, Marnes-la-Coquette, France) and incubated at 37° C. for 16 h to 24 h before performing the NDP rapid ESBL test as follows. One calibrated inoculated loop (10 μl) of the tested strain was resuspended in 150 μl of 20 mM Tris-HCl lysis buffer previously distributed in Microbead tubes (Ultraclean Microbial DNA isolation kit Bead Tubes, MO BIO Laboratories, Carlsbad, USA). Mechanical lysis of bacteria was performed by strong agitation of Microbead tubes using a vortex adapter (MO BIO Laboratories) for 30 min at room temperature. This bacterial suspension was centrifuged at 10,000×g at room temperature for 5 min. Thirty μl of the supernatant was mixed in a well of a 96-well tray with 100 μl of a 1 ml solution made of 3 mg of purified cefotaxime sodium salt (Sigma-Aldrich, Saint-Quentin-Fallavier, France) in a pH 7.8 phenol red solution. […]. The phenol red solution was made by taking 2 ml of a concentrated pH 8 phenol solution (made from a mixture of phenol red 0.5% in distilled water) to which 16.6 ml of distilled water was added. The pH value was then adjusted to a 7.8 value by adding drops of a 1 N NaOH solution. Mixture of the phenol red solution and the enzymatic suspension being tested was incubated at 37° C. for 30 min. Similarly, culture extracts were analyzed in wells containing cefotaxime and tazobactam (4 mg/ml). Other concentrations of tazobactam and other ß-lactamase inhibitors were tested giving less clear results (data not shown). […] This definition of test positivity will be applied throughout the study.

CO/N=C(\C(=O)N[C@@H]1C(=O)N2C(C(=O)O)=C(COC(C)=O)CS[C@H]12)c1csc(N)n1 [CTX, cefotaxime]
MICs range (P. stuartii): 0.5 µg/mL
MICs range (E. cloacae; E. cloacae CTX-M-14, n=1): >16 µg/mL
MICs range (E. cloacae; E. cloacae CTX-M-15, n=17): >16 µg/mL
MICs range (E. cloacae; E. cloacae GES-5, n=1): >16 µg/mL
MICs range (E. cloacae; E. cloacae PER-1, n=1): >16 µg/mL
MICs range (E. cloacae; E. cloacae SHV-5, n=1): >16 µg/mL
MICs range (E. cloacae; E. cloacae TEM-3, n=2): >16 µg/mL
MICs range (E. cloacae; E. cloacae VEB-1, n=1): 16 µg/mL
MICs range (E. cloacae; E. cloacae Wild-type, chromosome-encoded cephalosporinase, n=5): 0.09 to 0.5 µg/mL
MICs range (E. cloacae; E. cloacae, overexpressed chromosome-encoded cephalosporinase, n=2): >16 µg/mL
MICs range (E. cloacae; E. cloacae, overexpressed chromosome-encoded cephalosporinase, n=3): >16 µg/mL
ESBL NDP Test from: Colonies (E. coli; E. coli 09.11, TEM-52): +
ESBL NDP Test from: Colonies (E. coli; E. coli 09.123, TEM-133): −
ESBL NDP Test from: Colonies (E. coli; E. coli 09.124, TEM-52): +
ESBL NDP Test from: Colonies (E. coli; E. coli 09.129, SHV-12): +
ESBL NDP Test from: Colonies (E. coli; E. coli 09.173, SHV-12): +
ESBL NDP Test from: Colonies (E. coli; E. coli 09.187, SHV-2a): +
ESBL NDP Test from: Colonies (E. coli; E. coli 09.193, SHV-12): +
ESBL NDP Test from: Colonies (E. coli; E. coli 09.207, SHV-2a): +
ESBL NDP Test from: Colonies (E. coli; E. coli 09.225, TEM-52): +
ESBL NDP Test from: Colonies (E. coli; E. coli 09.40, TEM-52): +
ESBL NDP Test from: Colonies (E. coli; E. coli 09.41, SHV-12): +
ESBL NDP Test from: Colonies (E. coli; E. coli 09.66, TEM-52): +
ESBL NDP Test from: Colonies (E. coli; E. coli 09.73, TEM-52): +
ESBL NDP Test from: Colonies (E. coli; E. coli 09.79, SHV-12): +
ESBL NDP Test from: Colonies (E. coli; E. coli 09.92, TEM-52): +
ESBL NDP Test from: Colonies (E. coli; E. coli 10.104, CTX-M-1): +
ESBL NDP Test from: Colonies (E. coli; E. coli 10.11, CTX-M-14): +
ESBL NDP Test from: Colonies (E. coli; E. coli 10.121, CTX-M-2): +
ESBL NDP Test from: Colonies (E. coli; E. coli 10.124, CTX-M-14): +
ESBL NDP Test from: Colonies (E. coli; E. coli 10.130, CTX-M-3): +
ESBL NDP Test from: Colonies (E. coli; E. coli 10.13, CTX-M-14): +
ESBL NDP Test from: Colonies (E. coli; E. coli 10.132, CTX-M-2): +
ESBL NDP Test from: Colonies (E. coli; E. coli 10.16, CTX-M-15): +
ESBL NDP Test from: Colonies (E. coli; E. coli 10.178, CTX-M-27): +
ESBL NDP Test from: Colonies (E. coli; E. coli 10.198, CTX-M-27): +
ESBL NDP Test from: Colonies (E. coli; E. coli 10.204, CTX-M-27): +
ESBL NDP Test from: Colonies (E. coli; E. coli 10.207, CTX-M-27): +
ESBL NDP Test from: Colonies (E. coli; E. coli 10.23, CTX-M-2): +
ESBL NDP Test from: Colonies (E. coli; E. coli 10.32, CTX-M-14): +
ESBL NDP Test from: Colonies (E. coli; E. coli 10.33, CTX-M-15): +
ESBL NDP Test from: Colonies (E. coli; E. coli 10.36, CTX-M-1): +
ESBL NDP Test from: Colonies (E. coli; E. coli 10.38, CTX-M-1): +
ESBL NDP Test from: Colonies (E. coli; E. coli 10.43, CTX-M-15): +
ESBL NDP Test from: Colonies (E. coli; E. coli 10.46, CTX-M-14): +
ESBL NDP Test from: Colonies (E. coli; E. coli 10.49, CTX-M-15): +
ESBL NDP Test from: Colonies (E. coli; E. coli 10.53, CTX-M-9): +
ESBL NDP Test from: Colonies (E. coli; E. coli 10.64, CTX-M-32): +
ESBL NDP Test from: Colonies (E. coli; E. coli 10.73, CTX-M-27): +
ESBL NDP Test from: Colonies (E. coli; E. coli 10.74, CTX-M-15): +
ESBL NDP Test from: Colonies (E. coli; E. coli 10.95, CTX-M-1): +
ESBL NDP Test from: Colonies (E. coli; E. coli (Belgium), ACC-1): −
ESBL NDP Test from: Colonies (E. coli; E. coli A7R5, SHV-3): +
Test (color change) (E. coli; E. coli ACC-1, n=1, first line): −
Test (color change) (E. coli; E. coli ACC-1, n=1, second line): +
ESBL NDP Test from: Colonies (E. coli; E. coli BG 1106 5698, Penicillinase): −
ESBL NDP Test from: Colonies (E. coli; E. coli BG 1106 6252, Wild-type): −
ESBL NDP Test from: Colonies (E. coli; E. coli BG 1106 6367, Wild-type): −
ESBL NDP Test from: Colonies (E. coli; E. coli BG 1106 7202, Penicillinase): −
ESBL NDP Test from: Colonies (E. coli; E. coli BG 1107 8873, Wild-type): −
ESBL NDP Test from: Colonies (E. coli; E. coli BG 1108 6157, Penicillinase): −
ESBL NDP Test from: Colonies (E. coli; E. coli C5O52, CTX-M-28): +
Test (color change) (E. coli; E. coli CMY-2, n=1): +
Test (color change) (E. coli; E. coli CTX-M-1, n=16): +
Test (color change) (E. coli; E. coli CTX-M-2, n=3): +
Test (color change) (E. coli; E. coli CTX-M-3, n=1): +
Test (color change) (E. coli; E. coli CTX-M-9, n=1): +
Test (color change) (E. coli; E. coli CTX-M-14, n=15): +
Test (color change) (E. coli; E. coli CTX-M-15, n=46): +
Test (color change) (E. coli; E. coli CTX-M-27, n=6): +
Test (color change) (E. coli; E. coli CTX-M-28, n=1): +
Test (color change) (E. coli; E. coli CTX-M-32, n=1): +
Test (color change) (E. coli; E. coli CTX-M-97, n=1): +
Test (color change) (E. coli; E. coli DHA-1, n=1): −
ESBL NDP Test from: Colonies (E. coli; E. coli Ec13 SYD, CMY-2): +
ESBL NDP Test from: Colonies (E. coli; E. coli GOU, DHA-1): −
ESBL NDP Test from: Colonies (E. coli; E. coli LOU, ACC-1): +
Test (color change) (E. coli; E. coli SHV-2a, n=3): +
Test (color change) (E. coli; E. coli SHV-3, n=1): +
Test (color change) (E. coli; E. coli SHV-12, n=1): −
Test (color change) (E. coli; E. coli SHV-12, n=6): +
Test (color change) (E. coli; E. coli TEM-1 penicillinase, n=5): −
Test (color change) (E. coli; E. coli TEM-12, n=1): −
Test (color change) (E. coli; E. coli TEM-29, n=2): −
Test (color change) (E. coli; E. coli TEM-52, n=8): +
Test (color change) (E. coli; E. coli TEM-133, n=1): −
Test (color change) (E. coli; E. coli VEB-1, n=1): +
Test (color change) (E. coli; E. coli Wild-type, no resistance, n=5): −
